Read-outs that look alike come from different tables or passages of the source.
Key:
PqsE(WT) [1] = molecular target: T1, PqsE(WT) (Pseudomonas aeruginosa, UniProt P20581); experiment: Esterase assay: inhibition of PqsE-catalyzed MU-butyrate hydrolysis; format: biochemical; conditions: for maximum level of inhibition of PqsE(WT): % inhibition
T1 construct: 6xHis (N); made in house; host or cells: E. coli BL21 (DE3)
Description: Purified PqsE, diluted in assay buffer (50 mM Tricine, 0.01% Triton X-100, pH 8.5), was added to the wells of an opaque 384-well plate at a final concentration of 125 nM. Test molecules were diluted in DMSO and added to the wells at the indicated concentrations (5% DMSO final). The plate was then incubated at room temperature for 5 min. MU-butyrate in assay buffer was added to the plate at a final concentration of 2 µM. The plate was incubated at room temperature for 20 min prior to measuring fluorescence (excitation: 360 nm and emission: 450 nm) to monitor the hydrolysis of MU-butyrate. All data were plotted in the Prism 9.0 program, and IC50 values were calculated from inhibition curves fit to the data.

PqsE(S285A) [2] = molecular target: T2, PqsE(S285A) (Pseudomonas aeruginosa, UniProt P20581, S285A); experiment: Esterase assay: inhibition of MU-butyrate hydrolysis by PqsE(S285A); format: biochemical; conditions: for increase of IC50 against PqsE(S285A) variant versus PqsE(WT): 20 min; for maximum level of inhibition of PqsE(S285A): % inhibition
PqsE-RhlR interaction = molecular target: T3, PqsE-RhlR interaction (Pseudomonas aeruginosa, UniProt P20581); experiment: PqsE-RhlR in vitro pull-down; format: binding; conditions: up to 100 µM, 1 µM 6xHis-PqsE(WT), RhlR-containing lysate
T3 construct: made in house; host or cells: Escherichia coli (PqsE purified; RhlR as crude lysate from a pET23a-rhlR strain grown with mBTL)
Description: RhlR was expressed following a previously established method ([18], [19]). Briefly, lysate was prepared from cultures of an Escherichia coli strain carrying rhlR on a pET23a plasmid that had been treated with the RhlR-solubilizing ligand, mBTL ([33]). The pull-down assay was conducted following a previously established method with some modifications ([18]). Briefly, purified 6xHis-PqsE(WT) was incubated with test molecules at the specified concentrations for 10 min at room temperature. The treated PqsE was then added to 100 µL of RhlR-containing lysate in lysis buffer (50 mM Tris-HCl, 150 mM NaCl, 20 mM imidazole, pH = 8.0) to a total final volume of 150 µL and a final PqsE concentration of 1 µM (final 0.6% DMSO). The mixtures were incubated at 4°C with rotation for 30 min before MagneHis Ni resin (Promega) was added (10 µL of settle volume), and incubation at 4°C with rotation was continued for 1 h. The Ni resin was then washed three times with lysis buffer, and then PqsE complexes were eluted with 50 µL elution buffer (50 mM Tris-HCl, 150 mM NaCl, 500 mM imidazole, pH = 8.0). The eluted proteins were then denatured in Laemmli sample buffer at 95°C and analyzed by SDS-PAGE.

PqsE(S285D) = molecular target: T4, PqsE(S285D) (Pseudomonas aeruginosa, UniProt P20581, S285D); format: binding; conditions: PqsE(S285D) 2 µM, compound 100 µM
T4 construct: made in house

PqsE(WT) [3] = molecular target: T1, PqsE(WT); experiment: Differential scanning fluorimetry (DSF), PqsE(WT); format: binding; conditions: PqsE(WT) 2 µM, compound 100 µM
Description: Compounds HJ1, HJ2, and HJ5 were tested for the ability to bind and shift the Tm of purified PqsE and PqsE variants using DSF as described previously with some modifications ([18]). Briefly, compounds in DMSO were diluted in assay buffer (50 mM Tris, 150 mM NaCl, 200 µM MnCl2, pH 8) to achieve a final concentration of 100 µM (1% DMSO). Compound solutions were transferred to the wells of a 96-well PCR plate (ThermoFisher), and control wells were prepared with 1% DMSO (negative control). SYPRO Orange Dye and PqsE solutions were diluted in assay buffer and subsequently added to the wells to reach final concentrations of 7× SYPRO Orange and 2 µM PqsE. Final volume in each well was 80 µL. Plates were sealed with transparent optical adhesive covers (ThermoFisher) prior to measurement of SYPRO Orange fluorescence (ex, 580 nm; em, 623 nm) in a QuantStudio 3 Real-Time PCR system (ThermoFisher) over an increasing temperature gradient from 25 to 90°C (temperature increased at a rate of 0.1°C/s). Tm was determined from first derivative plots of the raw fluorescence curves using the Prism 9.0 software.

[4] = tested on: wild-type P. aeruginosa PA14; experiment: Pyocyanin assay, wild-type strain; format: cell-based, Pseudomonas aeruginosa
Description: P. aeruginosa PA14 cultures were grown overnight in LB at 37°C with shaking. The saturated cultures were then diluted 1:1,000 into fresh LB containing test molecules in DMSO (final 1% DMSO). Cultures then grew for ~17 h at 37°C with shaking at 200 rpm. Next, 1 mL of each culture was collected and pelleted by centrifugation at 13,000 rpm for 3 min. The supernatant was carefully transferred to a cuvette, and the OD695 was measured in a Genesys 20 ThermoSpectronic spectrophotometer. The cell pellet was resuspended in 1 mL of PBS and then transferred into the wells of a clear 96-well plate at 100 µL per well. The OD600 was measured to assess cell density. Pyocyanin production (OD695) of the supernatants was normalized to cell density (OD600 of the resuspended cell pellets).

[5] = tested on: P. aeruginosa PA14 pqsE(S285W) mutant strain; format: cell-based; conditions: 50 or 100 µM
PqsE(E182W/E280A) = molecular target: T5, PqsE(E182W/E280A) (Pseudomonas aeruginosa, UniProt P20581, E182W/E280A); format: binding; conditions: PqsE(E182W/E280A) 2 µM, compound 100 µM
T5 construct: made in house

PqsE(E182A) = molecular target: T6, PqsE(E182A) (Pseudomonas aeruginosa, UniProt P20581, E182A); format: binding; conditions: PqsE(E182A) 2 µM, compound 100 µM
T6 construct: made in house

PqsE(S285A) [6] = molecular target: T2, PqsE(S285A); experiment: Differential scanning fluorimetry (DSF), PqsE(S285A); format: binding; conditions: compound 100 µM; for Tm of PqsE-HJ complex / ∆Tm, shift in melting temperature vs DMSO-treated control: PqsE(S285A) 2 µM; for significance of shift in Tm compared to HJ2: PqsE(S285A)
PqsE(S285Y) = molecular target: T7, PqsE(S285Y) (Pseudomonas aeruginosa, UniProt P20581, S285Y); format: binding; conditions: PqsE(S285Y) 2 µM, compound 100 µM
T7 construct: made in house

PqsE(S285W) [7] = molecular target: T8, PqsE(S285W) (Pseudomonas aeruginosa, UniProt P20581, S285W); format: biochemical; conditions: esterase assay
T8 construct: 6xHis (N); made in house; host or cells: E. coli BL21 (DE3)

PqsE(E280A) = molecular target: T9, PqsE(E280A) (Pseudomonas aeruginosa, UniProt P20581, E280A); format: binding; conditions: PqsE(E280A) 2 µM, compound 100 µM
T9 construct: made in house

PqsE(E182W) = molecular target: T10, PqsE(E182W) (Pseudomonas aeruginosa, UniProt P20581, E182W); format: binding; conditions: PqsE(E182W) 2 µM, compound 100 µM
T10 construct: made in house

PqsE(S285W) [8] = molecular target: T8, PqsE(S285W); format: binding; conditions: compound 100 µM; for Tm of PqsE-HJ complex / ∆Tm, shift in melting temperature vs DMSO-treated control: PqsE(S285W) 2 µM; for significance of shift in Tm compared to HJ2: PqsE(S285W)
PqsE(WT) [9] = molecular target: T1, PqsE(WT); conditions: 10 min trypsin

Row | Compound | increase of IC50 against PqsE(S285A) variant versus PqsE(WT) (PqsE(S285A) [2]) | maximum level of inhibition of PqsE(S285A) (PqsE(S285A) [2]) | Tm of PqsE-HJ complex (PqsE(S285D)) | ∆Tm, shift in melting temperature vs DMSO-treated control (PqsE(S285D)) | Tm of PqsE-HJ complex (PqsE(WT) [3]) | ∆Tm, shift in melting temperature vs DMSO-treated control (PqsE(WT) [3]) | Tm of PqsE-HJ complex (PqsE(E182W/E280A)) | ∆Tm, shift in melting temperature vs DMSO-treated control (PqsE(E182W/E280A)) | Tm of PqsE-HJ complex (PqsE(E182A)) | ∆Tm, shift in melting temperature vs DMSO-treated control (PqsE(E182A)) | Tm of PqsE-HJ complex (PqsE(S285A) [6]) | ∆Tm, shift in melting temperature vs DMSO-treated control (PqsE(S285A) [6]) | Tm of PqsE-HJ complex (PqsE(S285Y)) | ∆Tm, shift in melting temperature vs DMSO-treated control (PqsE(S285Y)) | Tm of PqsE-HJ complex (PqsE(E280A)) | ∆Tm, shift in melting temperature vs DMSO-treated control (PqsE(E280A)) | Tm of PqsE-HJ complex (PqsE(E182W)) | ∆Tm, shift in melting temperature vs DMSO-treated control (PqsE(E182W)) | Tm of PqsE-HJ complex (PqsE(S285W) [8]) | ∆Tm, shift in melting temperature vs DMSO-treated control (PqsE(S285W) [8]) | also measured
1 | CC(C)(C)CNC(=O)Nc1ccc(NC(=O)c2cccc3cn[nH]c23)cc1 [BB584, reference compound] |  |  |  |  |  |  |  |  |  |  |  |  |  |  |  |  |  |  |  |  | IC50 (PqsE(WT) [1]; 125 nM PqsE, 2 µM MU-butyrate, pH 8.5, read-out: IC50, inhibition of PqsE enzyme function (MU-butyrate hydrolysis)): 108 nM
2 | CC(C)(C)OC(=O)Nc1ccc(NC(=O)c2cccc3cn[nH]c23)cc1 [HJ1] | approximately 10 fold | ~ 70% | 67.2 °C | 0.35 °C | 70.5 °C | 3.56 °C | 72.4 °C | 2.58 °C | 70.1 °C | 0.50 °C | 68.1 °C | 0.81 °C | 68.3 °C | 0.54 °C | 68.8 °C | 2.28 °C | 74.4 °C | 0.98 °C | 66.8 °C | 0.07 °C | effect on PqsE-RhlR complex formation (PqsE-RhlR interaction): neither HJ1 nor HJ5 showed any effect on complex formation; effect on pyocyanin production ([4]; pqsE(WT) strain, up to 100 µM): no appreciable effect; effect on pyocyanin production [5]: no appreciable effect; significance of shift in Tm compared to HJ2 (PqsE(S285A) [6]): neither HJ1 nor HJ5 induced significant shifts in Tm; effect of S285W substitution on binding/inhibition (PqsE(S285W) [7]): completely abrogated binding; maximum level of inhibition of PqsE(WT) (PqsE(WT) [1]): 100%; significance of shift in Tm compared to HJ2 (PqsE(S285W) [8]): neither HJ1 nor HJ5 induced significant shifts in Tm
3 | Cc1n[nH]c2c(C(=O)Nc3ccc(NC(=O)OC(C)(C)C)cc3)cccc12 [HJ2] |  |  | 67.0 °C | 0.14 °C | 67.7 °C | 0.74 °C | 70.0 °C | 0.20 °C | 69.2 °C | -0.47 °C | 67.9 °C | 0.61 °C | 68.2 °C | 0.41 °C | 67.1 °C | 0.61 °C | 73.9 °C | 0.48 °C | 66.8 °C | 0.07 °C | inhibitory activity on enzymatic activity of PqsE (PqsE(WT) [1]; esterase assay, dilution series): virtually no effect
4 | Cc1ccc(C(=O)Nc2ccc(NC(=O)OC(C)(C)C)cc2)c2[nH]ncc12 [HJ5] | approximately 10 fold | approximately 10% | 67.3 °C | 0.48 °C | 68.8 °C | 1.82 °C | 71.9 °C | 2.12 °C | 70.6 °C | 1.00 °C | 68.6 °C | 1.35 °C | 68.2 °C | 0.40 °C | 67.7 °C | 1.21 °C | 75.5 °C | 2.05 °C | 67.5 °C | 0.74 °C | effect on PqsE-RhlR complex formation (PqsE-RhlR interaction): neither HJ1 nor HJ5 showed any effect on complex formation; band intensity of undigested protein (band 1) after trypsin exposure (PqsE(WT) [9]; increasing concentrations up to 100 µM): increases as the concentration of HJ5 increases; induction of PqsE(E182W)-like banding pattern (conformational change) upon tryptic digest (PqsE(WT) [9]; up to 100 µM, 10 µM PqsE(WT)): did not produce a banding pattern similar to that of PqsE(E182W); decrease in pyocyanin production compared to DMSO-treated WT strain ([4]; 100 µM, WT strain, ~17 h): ~ 37%; inhibition at 50 µM ([4]; Pseudomonas aeruginosa, PA14, 50 µM, WT strain, ~17 h, read-out: inhibition of pyocyanin production compared to DMSO-treated WT strain): ~30%; significance of shift in Tm compared to HJ2 (PqsE(S285A) [6]): neither HJ1 nor HJ5 induced significant shifts in Tm; effect of S285W substitution on binding/inhibition (PqsE(S285W) [7]): completely abrogated binding; IC50 (PqsE(WT) [1]): 379 nM; maximum level of inhibition of PqsE(WT) (PqsE(WT) [1]): ~ 50%; significance of shift in Tm compared to HJ2 (PqsE(S285W) [8]): neither HJ1 nor HJ5 induced significant shifts in Tm

From PMC13203959, “New inhibitors of the Pseudomonas aeruginosa enzyme, PqsE, and methods assessing their potential to induce a conformational change via active site binding” (mSphere, 2026)
